Holding throughout (format): cell-based, human
In data set [1] the test system is hPSC-derived axial progenitors. Nature of the data set: Motor neuron (MN) subtype specification: immunostaining of embryoid bodies on day 14 of differentiation, proportion of MNs (ISL1+ cells) expressing HOX/FOXP1/SCIP markers. Particulars: for rostro-caudal identity of MNs generated: inhibitor added at D3 up to D7, RA/SAG at D7; for efficiency of MN generation: inhibitor from D3 to D7, RA/SAG at D7; for MN identities induced: extrinsic cue added on D3 with RA/SAG, all concentrations and durations. The method, then:
(§1) Human PSC embryoid body-based differentiation was performed as previously described (Maury et al., 2015). hPSC were dissociated with cold Accutase (Life Technologies) for 3 to 5 min at 37° C. and resuspended in differentiation medium N2B27 (Advanced DMEM F12, Neurobasal vol:vol (Life Technologies)), supplemented with N2 (Life Technologies), B27 without Vitamin A (Life technologies), penicillin/streptomycin 1%, β-Mercaptoéthanol 0.1% (Life Technologies), with Y-27632 (10 μM, Stemgent or Stem Cell Technologies), CHIR-99021 (3 μM or 4 μM Selleckchem) SB431542 (20 μM, Selleckchem) and LDN 193189 (0.1 μM, Selleckchem). 2×10^5 cells ml^−1 were seeded in ultra-low attachment 6 well plates (Corning) to form embryoid bodies (EBs). All conditions of differentiation received the same medium at day 2 and at day 3 but SB431542 was removed at day 3. Then, the differentiation proceeded according to the schemas presented above the figures. SAG (Smoothened Agonist, Merck millipore), FGF2 (Recombinant Human FGF basic, Peprotech), RA (Sigma-Aldrich), GDF11 (Recombinant Human/Murine/Rat GDF11, Peprotech), PD0325901 (Selleckchem), PD173074, SCH772984 (Selleckchem), DAPT (Stemgent) were added at indicated time points. For concentrations see Table S2. Media were changed every other day unless specified.
EBs were collected, rinsed with PBS then fixed with 4% PFA for 5 min at 4° C. and rinsed with PBS 3 times for 5 min. EBs were cryoprotected with 30% sucrose and embedded in OCT (Leica) prior sectioning with a cryostat. Alternatively, day 2, 3 and 4 progenitors were plated on Matrigel (Corning, diluted according to manufacturer recommendation) coated coverslips and let to adhere between for 30 min prior fixation with 4% PFA for 5 min at 4° C.
All immunostainings were performed as follow: cells or sections were incubated with a saturation solution (PBS/FBS 10%/0.2% Triton) for 10 minutes. Primary antibodies (Table S3) were diluted in staining solution (PBS/2% FBS/0.2% Triton) and incubated overnight at 4° C. in a humidified chamber. Following 4 PBS washes (10 min each), secondary antibodies (Alexa488, Alexa568 and Alexa647, Life Technologies, 1:1,000) were added for 1 h at RT. After 3 PBS washes, DAPI was added on the cells (Invitrogen, 1:3,000) for 5 min. Cells or slices were then mounted in Fluoromount (Sigma Aldrich or Cliniscience).
Samples were visualized and imaged using either a ZEISS LSM 880 Confocal Laser Scanning Microscope (Carl Zeiss Microscopy) controlled by Zen black software (Zeiss), a confocal microscope TCS SP5 II (Leica) or a DM6000 microscope (Leica) equipped with CoolSNAP EZ CDD camera, controlled by MetaMorph software (MetaMorph Inc). Alternatively, images were acquired using the automated microscope Cell Discoverer 7 (Zeiss), equipped with an Axiocam 506 m camera, with Zen black software (Zeiss).
All statistics were computed using Graphpad Prism software. One-way analysis of variance (ANOVA) with a Kruskall-Wallis post hoc analysis were performed following normality tests provided by Prism. In all figures, n are independent differentiations started from independent newly thawed hPSCs vials. For each condition at least 4 independent EBs were imaged in which all the cells were quantified by automated image analysis. The images were exported and saved as TIFF with Fiji if needed (Schindelin et al., 2012). Quantitative analyses on images were performed using the CellProfiler software (Carpenter et al., 2006) (Broad Institute open source at www.cellprofiler.org). DAPI stained nucleus were segmented into primary objects using CellProfiler segmentation pipeline and the nuclear mask was used to define objects on the target channels. The threshold to define positive nuclei for a given target was obtained using EBs' section negative for the target of interest. All images across conditions were then automatically analyzed in batch ensuring unbiased analysis. […]

Data set [2] relates to HOX genes in hPSC-derived axial progenitors. As to the kind of experiment: Real time PCR analysis of HOX mRNAs in progenitors. As to conditions: for temporal increase of HOXC6, C8 and C9 mRNAs in progenitors: inhibitor at D3, progenitors at D4 and D5. The procedure:
as §1
Total RNA were extracted (RNAeasy Plus Mini Kit, Qiagen) and cDNA synthesized using SuperScript III (Invitrogen). Quantitative real-time PCR was performed using a 7900HT fast real time PCR system (Applied Biosystems) with Sybr Green PCR Master Mix (Applied Biosystems). Alternatively performed using QuantStudio 5 Real-Time PCR System (Thermofisher Scientific) and a mix with qPCR Brilliant II SYBR MM with low ROX (Agilent). Primers are listed in Supplementary Table 3. All expression data were normalized to Cyclophilin A mRNA. All analyses were performed with three technical replicates per plate. Relative expression levels were determined by calculating 2-ΔΔCt.
(Real-time PCR tracks product formation cycle by cycle.)

A further data set deals with induced PSC (iPSC) line. As to the kind of experiment: Induction of CDX2-expressing axial progenitors in an induced PSC line. As to conditions: CHIR increased from 3 to 4 μM. The method, then:
as §1, with “ml^-1” for “ml^−1”, “schemas” left out, “specified. […]” for “specified.”

Setting [3] is: FGF2 15 ng/ml D3 to D9 together with RA/SAG.
Where [4] appears, read: FGF2 60 ng/ml D3 to D9 together with RA/SAG.
[5] abbreviates: FGF2 120 ng/ml for 24 h from D3, with RA/SAG.
The mark [6] stands for this setting: FGF2 120 ng/ml for 48 h from D3, with RA/SAG.
Where [7] appears, read: GDF11 25 ng/ml for 24 h with RA on D3 progenitors.

Data on five molecules can be found in patent US20230416675A1, “EFFICIENT AND RAPID SPECIFICATION OF SPINAL NEURONAL SUBTYPES FROM HUMAN PLURIPOTENT STEM CELLS” (INSERM (INSTITUT NATIONAL DE LA SANTE ET DE LA RECHERCHE …, priority 2020, published 2023).

“Also recorded” adds a separate entry of the source.

As for `O=C(NOC[C@H](O)CO)c1ccc(F)c(F)c1Nc1ccc(I)cc1F` [PD0325901, reference compound], the “rostro-caudal identity of MNs generated” value in data set [1] is “anterior brachial identity (HOXC6)”; in data set [1] (listed as PD032590) it was “prevent the specification of HOXC8 and HOXC9 MNs”. Also, the “efficiency of MN generation” value in data set [1] was “not impacted”. Further, the “temporal increase of HOXC6, C8 and C9 mRNAs in progenitors” value in data set [2] is on record as “blocked this increase at D4 or D5”; in data set [2] (listed as PD032590) it was “prevent the temporal increase in caudal HOX expression”.
As to `CCN(CC)CCCCNc1ncc2cc(-c3cc(OC)cc(OC)c3)c(NC(=O)NC(C)(C)C)nc2n1` [PD173074, reference compound], in data set [1], the “rostro-caudal identity of MNs generated” value is “prevent the specification of HOXC8 and HOXC9 MNs; also recorded: anterior brachial identity (HOXC6)”; the “efficiency of MN generation” value is “not impacted”. For the same molecule, in data set [1] (inhibitor from D3 to D7), the “number of EBs collected” value is recorded as “reduced number of EBs”. In addition, the “temporal increase of HOXC6, C8 and C9 mRNAs in progenitors” value in data set [2] is recorded as “prevent the temporal increase in caudal HOX expression”.
Turning to `Cc1cnc(-c2cnc(NCCNc3ccc(C#N)cn3)nc2-c2ccc(Cl)cc2Cl)[nH]1` [CHIR, 6-[[2-[[4-(2,4-dichlorophenyl)-5-(5-methyl-1H-imidazol-2-yl)-2 pyrimidinyl]amino]ethyl]amino]-3-pyridinecarbonitrile], the “homogenous population of progenitors expressing CDX2 on D3” value with induced PSC (iPSC) line was “necessary to generate a homogenous population of progenitors expressing CDX2 on D3”.
For the molecule “FGF2: Recombinant Human FGF basic, Peprotech, accession P09038; FGFR agonist”, in data set [1] (setting [3]), the “Caudal brachial HOXC8 MNs” value came out at 68.2% and the “HOXC8 MNs, fold increase” value is 8.6 fold. Also, in data set [1] (setting [4]), the “HOXC9+/HOXC6- thoracic MNs” value was 58.9% and the “HOXC9+/HOXC6- thoracic MNs, fold increase” value was 82.5 fold. Besides, the “HOXC6 MNs” value in data set [1] (FGF2 120 ng/ml D3 to D9 together with RA/SAG) is “reduced slightly more HOXC6 MNs”. In data set [1] (setting [5]), the “FOXP1^high/SCIP MNs” value turned out to be 47.9%, the “HOXC6 MNs” value is recorded as 49.7%, the “HOXC8 MNs” value turned out to be 79.4% and the “HOXC9 MNs” value is given as 14.7%. Moreover, in data set [1] (setting [6]), the “FOXP1^high/SCIP MNs” value is reported as 13.2%, the “HOXC6 MNs” value is given as 7.5% and the “HOXC9 MNs” value came to 76.4%. Also, the “MN identities induced” value in data set [1] was “induce more caudal MN subtypes; also recorded: more caudal MN identities were induced without the need of delaying RA addition”. In data set [2] (24 h and 48 h post FGF2 treatment), the “HOX gene expression compared to RA/SAG controls” value is “precocious increase in HOXC8, HOXC9, HOXD9 and HOXC10 expression”.

B1: GDF11: Recombinant Human/Murine/Rat GDF11, Peprotech; member of the TGFβ family (protein, UniProt O95390 299-407, looked up)
Growth/differentiation factor …: NLGLDCDEHSSESRCCRYPLTVDFEAFGWDWIIAPKRYKANYCSGQCEYMFMQKYPHTHLVQQANPRGSAGPCCTPTKMSPINMLYFNDKQQIIYGKIPGMVVDRCGCS
For B1, the “caudal thoracic or lumbar identities” value in data set [1] (GDF11 25 ng/ml for 24 h or 48 h with RA) is listed as “none of the more caudal identities were observed”. In addition, in data set [1] (setting [7]), the “HOXC8 MNs” value is recorded as 58.7% and the “HOXC9 MNs” value is 41.0%. Also, the “anterior thoracic MNs” value in data set [1] (GDF11 25 ng/ml for 48 h with RA on D3 progenitors) is “increasing after 48 h”. Further, in data set [1], the “MN identities induced” value is reported as “induce more caudal MN subtypes”.
